Data set [1] addresses T1, human SGLT2 (Homo sapiens, UniProt P31639).
T1 construct: expressed in transfected cells; host or cells: CHO-FlpIn (Invitrogen)
T1 sequence (P31639 1-672): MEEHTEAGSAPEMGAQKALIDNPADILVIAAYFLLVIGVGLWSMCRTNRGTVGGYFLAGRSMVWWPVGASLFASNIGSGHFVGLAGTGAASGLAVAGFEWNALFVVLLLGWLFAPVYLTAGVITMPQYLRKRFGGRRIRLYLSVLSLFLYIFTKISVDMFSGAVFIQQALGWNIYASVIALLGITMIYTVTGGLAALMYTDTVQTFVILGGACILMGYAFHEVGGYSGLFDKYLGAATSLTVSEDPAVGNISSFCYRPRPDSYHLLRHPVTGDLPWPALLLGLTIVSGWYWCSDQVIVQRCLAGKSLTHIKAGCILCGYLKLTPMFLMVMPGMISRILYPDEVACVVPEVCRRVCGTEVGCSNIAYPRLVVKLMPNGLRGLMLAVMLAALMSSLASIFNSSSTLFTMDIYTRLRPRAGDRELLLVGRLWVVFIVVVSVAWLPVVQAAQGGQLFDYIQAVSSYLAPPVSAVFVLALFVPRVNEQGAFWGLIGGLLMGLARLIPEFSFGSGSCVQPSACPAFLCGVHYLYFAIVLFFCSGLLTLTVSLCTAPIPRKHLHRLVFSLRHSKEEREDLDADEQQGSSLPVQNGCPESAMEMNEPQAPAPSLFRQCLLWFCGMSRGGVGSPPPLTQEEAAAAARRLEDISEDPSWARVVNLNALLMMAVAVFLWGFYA
The experiment in a line: SGLT2 functional assay: inhibition of AMG uptake in CHO-FlpIn cells stably expressing human SGLT2. Type of data set: cell-based. The following applies: individual runs (Run No.), read-out: hSGLT2 IC50. The text has this: The SGLT2 functional assay was designed to detect the inhibition of methyl-alpha-D glucopyranoside (AMG—a non-metabolizable form of glucose) uptake via the SGLT2 transporter. The SGLT2 transporter recovers glucose from the proximal tubules of the kidney; its inhibition results in sugar wasted in the urine. The positive control compound, Phlorizin, is a known inhibitor of glucose uptake for SGLT2 and was used for comparing the high percent effect of SGLT2 inhibition of the test compounds.
CHO-FlpIn (Invitrogen, Carlsbad, Calif.) cells stably expressing human SGLT2 (pcDNA5/FRT) were plated in Iso-TC 96 well plates (Perkin Elmer, Waltham, Mass.) at a density of 100,000 cells/well in 100 microL of growth media (1:1 F-12/DMEM media (Gibco, Carlsbad, Calif.), 10% FBS (Sigma, St. Louis Mo.), 1× Pen/Strep (Gibco, Carlsbad, Calif.), 600 microg/mL Hygromycin (Invitrogen, Carlsbad, Calif.)). Prior to treating with test compound, confluent cells were serum starved for 2 hours at 37° C. in 1:1 F-12/DMEM media, replacing with fresh F-12/DMEM media after 1 hour. […] Cell plates were then incubated for 3 hours at 37° C. for AMG uptake.

Data set [2] can be described thus: Pharmacokinetic testing in rats (IV or PO). It is filed as in vivo. As to conditions: rat, IV, 2 mg/kg. Here is the method:
Examples 1A, 2A, 4A, 12A, and 14A were tested in rats to assess pharmacokinetic parameters including maximum concentration (Cmax), area under the plasma concentration time curve (AUC), clearance (CL), steady state volume of distribution (Vss), half life (t1/2), and bioavailability (F). Male Sprague Dawley rats (˜300 g) were used. Rats received compound by intravenous (IV) or oral gavage (PO) administration and the doses tested including vehicle to formulate dosing solutions are listed in Table 5.
Following IV or PO administration, 0.2 mL blood was sampled from the jugular vein at various timepoints (Table 5). Twenty microL aliquots of plasma samples and standards were subjected to protein precipitation with acetonitrile containing an internal standard. Samples were vortexed and centrifuged to obtain supernatant which was analyzed by LC-MS/MS. Analyst (Version 1.4.1) was used to measure peak areas and peak area ratios of analyte to internal standard were calculated. LC-MS/MS conditions are as follows: Mass Spectrometer+Source Type was Sciex API 4000−Turbo Spray; HPLC pump was Shimadzu; Autosampler was CTC PAL Autosampler; Injection volume was 3.0 to 10 microL; A gradient was used with mobile phase A: 10 mM ammonium acetate and 1% Isopropyl alcohol in water; B: Acetonitrile; Flowrate 0.300 mL per minute (Column 2.0×30 mm 5 microm LUNA C18 column (phenomenex)). Detection mode was negative.
A calibration curve was constructed from the peak area ratios of the standards to the internal standard by applying a weighted linear (1/x or 1/x2) regression. The dynamic range of the standard curve was 5.00 ng/mL to 5000 ng/mL.
Pharmacokinetic parameters were determined from individual animal data using non-compartmental analysis in Watson (version 7.2). Concentrations below the limit of quantitation (BLQ) were recorded as 0 ng/mL for use in calculations.
The following calculations were used: AUC(0−τ)=Determined using the linear trapezoidal method AUC(0−□)=AUC(0−τ) plus extrapolated area determined by dividing plasma concentration at τ by the slope of the terminal log-linear phase CL=Dose/AUC(0−∞) Vdss=CL×MRT Cmax=Recorded directly from plasma concentration time curve Tmax=Recorded directly from plasma concentration time curve t½=ln(0.5)/slope of the terminal log-linear phase F %=AUC(0−∞)PO per dose/AUC(0−∞)IV per dose C(0)=Extrapolated by linear regression from the apparent distribution phase following IV administration MRT=AUMC(AUC(0−∞)/AUC(0−∞)

The target in data set [3] is T2, hSGLT1 (Homo sapiens, UniProt P13866).
T2 sequence (P13866 1-664): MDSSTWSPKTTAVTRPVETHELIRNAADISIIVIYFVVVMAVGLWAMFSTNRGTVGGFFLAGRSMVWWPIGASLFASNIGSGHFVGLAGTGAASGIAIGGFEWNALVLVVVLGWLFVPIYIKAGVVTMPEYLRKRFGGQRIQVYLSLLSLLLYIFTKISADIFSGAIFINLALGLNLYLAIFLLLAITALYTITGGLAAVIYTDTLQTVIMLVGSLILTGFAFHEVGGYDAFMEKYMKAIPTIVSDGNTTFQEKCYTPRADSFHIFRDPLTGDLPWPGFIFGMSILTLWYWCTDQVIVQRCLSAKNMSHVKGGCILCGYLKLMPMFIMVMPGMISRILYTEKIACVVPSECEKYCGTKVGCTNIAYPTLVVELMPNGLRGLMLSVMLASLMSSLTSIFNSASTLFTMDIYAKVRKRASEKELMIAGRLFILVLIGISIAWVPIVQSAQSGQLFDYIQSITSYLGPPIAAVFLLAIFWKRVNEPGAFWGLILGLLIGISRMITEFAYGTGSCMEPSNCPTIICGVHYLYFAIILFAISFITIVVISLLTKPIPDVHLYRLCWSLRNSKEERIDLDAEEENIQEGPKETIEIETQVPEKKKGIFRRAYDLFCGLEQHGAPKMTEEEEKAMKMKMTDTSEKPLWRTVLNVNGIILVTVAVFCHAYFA
The data set can be described thus: SGLT1 functional assay: hSGLT1 IC50 (selectivity counter-screen to the SGLT2 AMG uptake assay). It is filed as cell-based. As to conditions: individual runs (Run No.). In general terms: Counterscreens check selectivity or assay interference.

Several values for one entry are separate records, joined by “and”; a condition that tells them apart may be missing. Equal entries are not always repeated.

Usually IC50 stands for the concentration that gives 50% inhibition. As a reminder, the AUC(0-inf) is total exposure, with the tail of the curve extrapolated. Lower therefore signals low exposure. For orientation: half-life means how long it takes for the measured level to halve. Low values mean fast loss, high ones slow loss.

As for `CCOc1ccc(Cc2cc([C@]34OC[C@](CO)(O3)[C@@H](O)[C@H](O)[C@H]4O)ccc2C)cc1` [Example 2A, (1S,2S,3S,4R,5S)-5-[3-(4-ethoxy-benzyl)-4-methyl-phenyl]-1-hydroxymethyl-6,8-dioxa-bicyclo[3.2.1]octane-2,3,4-triol], the half-inhibitory concentration (IC50) in data set [1] was 0.827 nM and 1.53 nM and 0.942 nM and 0.741 nM and 1.58 nM and 1.05 nM. In data set [2] (male, Sprague Dawley, plasma), this molecule registered a total exposure AUC(0-inf) of 1340 ng·h/mL. In data set [2], this molecule yielded a CL of 27.7 mL/min/kg, a Vss of 1.03 L/kg and a t1/2 of 0.94 h. Moreover, the IC50 in data set [3] is 1240 nM and > 1000 nM and 679 nM.

Consider `COc1ccc(Cc2cc([C@]34OC[C@](CO)(O3)[C@@H](O)[C@H](O)[C@@H]4O)ccc2Cl)cc1` [Example 3B, (1S,2S,3S,4S,5S)-5-[4-chloro-3-(4-methoxy-benzyl)-phenyl]-1-hydroxymethyl-6,8-dioxa-bicyclo[3.2.1]octane-2,3,4-triol], for which the IC50 in data set [1] was 41.6 nM and 40.8 nM and 27.9 nM and 62.2 nM; in data set [3] it was more than 10000 nM.

In the case of `CCOc1ccc(Cc2cc([C@]34OC[C@](CO)(O3)[C@@H](O)[C@H](O)[C@@H]4O)ccc2Cl)cc1` [Example 4B, (1S,2S,3S,4S,5S)-5-[4-chloro-3-(4-ethoxy-benzyl)-phenyl]-1-hydroxymethyl-6,8-dioxa-bicyclo[3.2.1]octane-2,3,4-triol], the half-maximal inhibitory concentration (IC50) in data set [1] is 122 nM and 66.8 nM and 81.7 nM; in data set [3], more than 10000 nM.

As for `COc1ccc(Cc2cc([C@]34OC[C@](CO)(O3)[C@@H](O)[C@H](O)[C@H]4O)ccc2F)cc1` [Example 5A, (1S,2S,3S,4R,5S)-5-[4-fluoro-3-(4-methoxy-benzyl)-phenyl]-1-hydroxymethyl-6,8-dioxa-bicyclo[3.2.1]octane-2,3,4-triol], the 50% inhibitory concentration (IC50) in data set [3] was > 10000 nM and > 1000 nM and 5790 nM.

As to `COc1ccc(Cc2cc([C@]34OC[C@](CO)(O3)[C@@H](O)[C@H](O)[C@@H]4O)ccc2F)cc1` [Example 5B, (1S,2S,3S,4S,5S)-5-[4-fluoro-3-(4-methoxy-benzyl)-phenyl]-1-hydroxymethyl-6,8-dioxa-bicyclo[3.2.1]octane-2,3,4-triol], the IC50 was 186 nM in data set [1] and more than 10000 nM in data set [3].

For `COc1ccc(Cc2cc([C@]34OC[C@](CO)(O3)[C@@H](O)[C@H](O)[C@H]4O)ccc2C#N)cc1` [Example 6A, 2-(4-methoxybenzyl)-4-((1S,2S,3S,4R,5S)-2,3,4-trihydroxy-1-(hydroxymethyl)-6,8-dioxa-bicyclo[3,2,1]oct-5-yl)-benzonitrile], the IC50 in data set [1] was 18.7 nM and 9.99 nM and 13.5 nM and 13.4 nM and 5.71 nM and 7.67 nM; in data set [3] it was > 10000 nM and > 1000 nM and 8930 nM.

Regarding `CCOc1ccc(Cc2cc([C@]34OC[C@](CO)(O3)[C@@H](O)[C@H](O)[C@H]4O)ccc2C#N)cc1` [Example 7A, 2-(4-ethoxybenzyl)-4-((1S,2S,3S,4R,5S)-2,3,4-trihydroxy-1-(hydroxymethyl)-6,8-dioxa-bicyclo[3,2,1]oct-5-yl)-benzonitrile], the half-inhibitory concentration (IC50) is 10.6 nM and 6.38 nM and 5.88 nM and 6.11 nM in data set [1]; more than 10000 nM in data set [3].

Turning to `CCOc1ccc(Cc2cc([C@]34OC[C@](CO)(O3)[C@@H](O)[C@H](O)[C@H]4O)ccc2F)cc1` [Example 10A], in data set [3], the IC50 was more than 10000 nM.

Consider `CCOc1ccc(Cc2cc([C@]34OC[C@](CO)(O3)[C@@H](O)[C@H](O)[C@@H]4O)ccc2F)cc1` [Example 10B, (1S,2S,3S,4S,5S)-5-[3-(4-ethoxy-benzyl)-4-fluoro-phenyl]-1-hydroxymethyl-6,8-dioxa-bicyclo[3.2.1]octane-2,3,4-triol], for which the IC50 in data set [1] is 127 nM and 103 nM; in data set [3], more than 10000 nM.

Regarding `OC[C@@]12CO[C@@](c3ccc(F)c(Cc4ccc(OC5CCOC5)cc4)c3)(O1)[C@H](O)[C@@H](O)[C@@H]2O` (stereo partly drawn) [Example 11A, (1S,2S,3S,4R,5S)-5-{4-fluoro-3-[4-(tetrahydro-furan-3-yloxy)-benzyl]-phenyl}-1-hydroxymethyl-6,8-dioxa-bicyclo[3.2.1]octane-2,3,4-triol], the concentration for half-maximal inhibition (IC50) in data set [1] was 9.6 nM and 11.9 nM and 19.8 nM and 7.13 nM; in data set [3], more than 10000 nM.

On to `OC[C@@]12CO[C@@](c3ccc(F)c(Cc4ccc(Cl)cc4)c3)(O1)[C@H](O)[C@@H](O)[C@@H]2O` [Example 12A, (1S,2S,3S,4R,5S)-5-[3-(4-chlorobenzyl)-4-fluorophenyl]-1-hydroxymethyl-6,8-dioxabicyclo[3.2.1]octane-2,3,4-triol], for which, in data set [2] (male, Sprague Dawley, plasma), the AUC(0-inf) amounted to 2200 ng·h/mL, the clearance was 15.9 mL/min/kg and the half-life was 3.9 h. For the same molecule, the Vd in data set [2] (male, Sprague Dawley, plasma, read-out: Vss) worked out at 3.68 L/kg. For the same molecule, the IC50 in data set [3] was > 10000 nM and 5780 nM.

As for `OC[C@@]12CO[C@@](c3ccc(F)c(Cc4ccc(Cl)cc4)c3)(O1)[C@@H](O)[C@@H](O)[C@@H]2O` [Example 12B, (1S,2S,3S,4S,5S)-5-[3-(4-chlorobenzyl)-4-fluorophenyl]-1-hydroxymethyl-6,8-dioxabicyclo[3.2.1]octane-2,3,4-triol], the IC50 in data set [1] is 32.3 nM; in data set [3], more than 3160 nM.

Turning to `OC[C@@]12CO[C@@](c3ccc(F)c(Cc4ccc(OC5COC5)cc4)c3)(O1)[C@H](O)[C@@H](O)[C@@H]2O` [Example 13A, (1S,2S,3S,4R,5S)-5-{4-fluoro-3-[4-(oxetan-3-yloxy)-benzyl]-phenyl}-1-hydroxymethyl-6,8-dioxa-bicyclo[3.2.1]octane-2,3,4-triol], the IC50 in data set [1] was 14.9 nM and 17.8 nM; in data set [3], more than 10000 nM.

For the origin of these results see patent US8080580B2, “Dioxa-bicyclo[3.2.1]octane-2,3,4-triol derivatives” (Pfizer Inc., priority 2008, dated 2011).
